Experimental data from ChEMBL document CHEMBL1201862, “PubChem BioAssay data set” (2004).
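Exposure lasted 48 hours, with cells grown in 96-well plates and compounds tested at five concentrations. GI50 = concentration required for 50% inhibition of growth.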 The source made the active and inactive calls. Rule as the data show it: active = GI50 up to about 1.1 µM and inactive = higher.

Columns and labels:
Test in all cases: NCI tumour cell line growth inhibition, 48 h
[1] = tested on: DU-145
[2] = tested on: Hs-578T
[3] = tested on: MDA-MB-435
[4] = tested on: MDA-MB-231
[5] = tested on: PC-3
[6] = tested on: T47D
[7] = tested on: BT-549
[8] = tested on: 786-0
[9] = tested on: RXF 631

Measured: GI50

O=C1CCC[C@H]2O[C@@H](COC(=O)c3ccccc3)C[C@H]2O1
inactive: [1] > 100 µM | [2] > 100 µM | [3] > 100 µM | [4] > 100 µM | [5] > 100 µM | [6] > 100 µM

COC1C(=O)CCC2(CO2)C1(O)C1(C)OC1CC=C(C)C (centres undefined)
inactive: [1] 19.5 µM | [2] 22.1 µM | [7] 50.6 µM | [3] 24.5 µM | [4] > 100 µM | [5] 28.3 µM | [8] 32.4 µM | [6] > 100 µM

Cc1ccc(C2C(Cl)C(=O)N2NC(=O)c2ccc(N)cc2)cc1 (centres undefined)
inactive: [8] 15.5 µM

C=C(C[C@@H](O)[C@H](C)NC(=O)OCc1ccccc1)C(=O)OC(C)(C)C
inactive: [1] 45.7 µM | [2] > 100 µM | [7] 95.9 µM | [3] 49.7 µM | [4] > 100 µM | [5] > 100 µM | [6] 13.1 µM

O=C(NCCN(CCNC(=O)c1cccc(=O)n1O)CCNC(=O)c1cccc(=O)n1O)c1cccc(=O)n1O
inactive: [1] > 100 µM | [2] > 100 µM | [7] > 100 µM | [3] > 100 µM | [4] > 100 µM | [5] > 100 µM | [6] > 100 µM

CC(=O)c1sc(Nc2nnc(-c3ccc(-c4nnc(Nc5nc(C)c(C(C)=O)s5)o4)cc3)o2)nc1C
inactive: [8] > 100 µM

CCC12CCC(O)C1N(C)CCC2Sc1ccccc1 (centres undefined)
inactive: [9] > 100 µM | [8] > 100 µM

COc1ccc(/C(Cl)=C(\C=O)c2ccc(Cl)cc2)cc1
inactive: [9] 3.64 µM

Cc1cn([C@@H]2C[C@H](CO)[C@@H](O)C2)c(=O)[nH]c1=O
inactive: [9] > 100 µM
